# Assay results: patent US20110196000A1, “Use of succinate dehydrogenase (SDH) inhibitors in the treatment of plant species from the family of the true grasses” (Bayer CropScience AG, priority 2010, published 2011)
# Tests used:
# Format in all cases: in vivo
# [1] = test system: infection-free wheat plants of the cultivar Passat; assay: Glasshouse trial: green leaf area by visual scoring; conditions: glasshouse
# Method: In a glasshouse trial under controlled conditions, the effect of bixafen was investigated on the physiology, morphology and abiotic stress tolerance of infection-free wheat plants of the cultivar […] plants were grown in 10-litre containers over a period of 4 months. The substrate used was standard earth type ED 73 (Fröndenberg, Germany)+C-Horizont+Sand (4:2:1). The supply of nutrient to the plants took place by feeding with a 0.2% strength Flory 2 liquid fertilizer solution (from Euflor, Munich) once every two weeks. The plants were supplied with water as required. In each component of the trial, 10 repetitions were carried out. To prevent infestation with powdery mildew, Proquinazid (Talius® was applied once. The incidence of aphids and spider mites was avoided by treatments with Karate®, Bulldock® and Sumicidin®. The products under test were applied to the plants, in the form of sequential spray sequences (BBCH 39 and 59). The spray volume was 300 l of water per hectare. [table] The duration of the green coloration of the leaf area was captured on the basis of regular visual scoring of the fraction of the green leaf area.
# [2] = test system: infection-free wheat plants of the cultivar Passat; assay: Glasshouse trial: gas exchange activity of wheat ears; conditions: development stage BBCH 75
# Method: (§1) In a glasshouse trial under controlled conditions, the effect of bixafen was investigated on the physiology, morphology and abiotic stress tolerance of infection-free wheat plants of the cultivar […] plants were grown in 10-litre containers over a period of 4 months. The substrate used was standard earth type ED 73 (Fröndenberg, Germany)+C-Horizont+Sand (4:2:1). The supply of nutrient to the plants took place by feeding with a 0.2% strength Flory 2 liquid fertilizer solution (from Euflor, Munich) once every two weeks. The plants were supplied with water as required. In each component of the trial, 10 repetitions were carried out.
# wheat variety Ritmo [3] = assay: Plot trial in Germany: green leaf area by visual scoring; conditions: sprays at BBCH 39 and 59
# Method: In Germany a plot trial was set up with the wheat variety Ritmo in order to investigate the effect of bixafen on the physiology, morphology and abiotic stress tolerance of wheat plants under realistic agricultural conditions. The products under test were applied to the plants, in the form of sequential spray sequences (BBCH 39 and 59). The spray volume was 400 l of water per hectare. In each trial component, 5 repetitions were carried out. [table] The duration of green coloration of the leaf area was captured by regular visual scoring of the fraction of green leaf area.
# wheat = assay: Effect on the number of kernels/ear; conditions: 2nd trial; applied at BBCH 39 (prothioconazole 200 g a.i.; bixafen + prothioconazole 75 + 150 g a.i./ha)
# [4] = test system: infection-free wheat plants of the cultivar Passat; assay: Glasshouse trial: temperature of ears and leaves as measure of transpiration activity
# Method: as §1
# wheat variety Ritmo [5] = assay: Plot trial: chlorophyll content of leaves (pigment extraction method of Ziegler and Ehle)
# wheat variety Ritmo [6] = assay: Plot trial: yield components; conditions: sprays at BBCH 39 and 59
# [7] = test system: infection-free wheat plants of the cultivar Passat; assay: Glasshouse trial: time of heading (ear emergence); parameters: time of heading of wheat (ears emerged): unit not given here
# Method: as §1
# [8] = test system: infection-free wheat plants of the cultivar Passat; assay: Glasshouse trial: yield components; conditions: glasshouse, sprays at BBCH 39 and 59
# [9] = 68 days after second fungicide application (so in the source)
# [10] = 75 days after second fungicide application (so in the source)
# [11] = 82 days after second fungicide application (so in the source)
# [12] = 89 days after second fungicide application (so in the source)
# [13] = 96 days after second fungicide application (so in the source)
# [14] = 103 days after second fungicide application (so in the source)
# [15] = 110 days after second fungicide application (so in the source)
# [16] = 117 days after second fungicide application (so in the source)
# [17] = 7 days after second fungicide application
# [18] = 14 days after second fungicide application
# [19] = 21 days after second fungicide application
# [20] = 28 days after second fungicide application
# [21] = 35 days after second fungicide application
# [22] = 42 days after second fungicide application
structure (smiles),measurement,setting,value
OC(Cc1ccccc1Cl)(Cn1nc[nH]c1=S)C1(Cl)CC1 (centres unmarked) [Prothioconazole],green leaf area of the flag leaf (F),[1]; [9],100 % leaf area
same,green leaf area of the second-from-top leaf (F-1),[1]; [9],100 % leaf area
same,green leaf area of the third-from-top leaf (F-2),[1]; [9],100 % leaf area
same,green leaf area of the flag leaf (F),[1]; [10],100 % leaf area
same,green leaf area of the second-from-top leaf (F-1),[1]; [10],100 % leaf area
same,green leaf area of the third-from-top leaf (F-2),[1]; [10],95 % leaf area
same,green leaf area of the flag leaf (F),[1]; [11],100 % leaf area
same,green leaf area of the second-from-top leaf (F-1),[1]; [11],95 % leaf area
same,green leaf area of the third-from-top leaf (F-2),[1]; [11],83 % leaf area
same,green leaf area of the flag leaf (F),[1]; [12],95 % leaf area
same,green leaf area of the second-from-top leaf (F-1),[1]; [12],83 % leaf area
same,green leaf area of the third-from-top leaf (F-2),[1]; [12],53 % leaf area
same,green leaf area of the flag leaf (F),[1]; [13],85 % leaf area
same,green leaf area of the second-from-top leaf (F-1),[1]; [13],57 % leaf area
same,green leaf area of the third-from-top leaf (F-2),[1]; [13],30 % leaf area
same,green leaf area of the flag leaf (F),[1]; [14],62 % leaf area
same,green leaf area of the second-from-top leaf (F-1),[1]; [14],30 % leaf area
same,green leaf area of the third-from-top leaf (F-2),[1]; [14],17 % leaf area
same,green leaf area of the flag leaf (F),[1]; [15],38 % leaf area
same,green leaf area of the second-from-top leaf (F-1),[1]; [15],19 % leaf area
same,green leaf area of the third-from-top leaf (F-2),[1]; [15],8 % leaf area
same,green leaf area of the flag leaf (F),[1]; [16],15 % leaf area
same,green leaf area of the second-from-top leaf (F-1),[1]; [16],5 % leaf area
same,green leaf area of the third-from-top leaf (F-2),[1]; [16],0 % leaf area
same,Photosynthesis (gas exchange activity of wheat ears),[2],−1.86 a CO2 per ear
same,Respiration (gas exchange activity of wheat ears),[2],2.12 ab CO2 per ear
same,green leaf area of the flag leaf,wheat variety Ritmo [3]; [17],98.8 % leaf area
same,green leaf area of the second-from-top leaf (F-1),wheat variety Ritmo [3]; [17],97.8 % leaf area
same,green leaf area of the third-from-top leaf (F-2),wheat variety Ritmo [3]; [17],96.1 % leaf area
same,green leaf area of the flag leaf,wheat variety Ritmo [3]; [18],98.2 % leaf area
same,green leaf area of the second-from-top leaf (F-1),wheat variety Ritmo [3]; [18],97.8 % leaf area
same,green leaf area of the third-from-top leaf (F-2),wheat variety Ritmo [3]; [18],95.9 % leaf area
same,green leaf area of the flag leaf,wheat variety Ritmo [3]; [19],98.1 % leaf area
same,green leaf area of the second-from-top leaf (F-1),wheat variety Ritmo [3]; [19],96.8 % leaf area
same,green leaf area of the third-from-top leaf (F-2),wheat variety Ritmo [3]; [19],94.9 % leaf area
same,green leaf area of the flag leaf,wheat variety Ritmo [3]; [20],94.0 % leaf area
same,green leaf area of the second-from-top leaf (F-1),wheat variety Ritmo [3]; [20],91.2 % leaf area
same,green leaf area of the third-from-top leaf (F-2),wheat variety Ritmo [3]; [20],83.7 % leaf area
same,green leaf area of the flag leaf,wheat variety Ritmo [3]; [21],58.8 % leaf area
same,green leaf area of the second-from-top leaf (F-1),wheat variety Ritmo [3]; [21],44.3 % leaf area
same,green leaf area of the third-from-top leaf (F-2),wheat variety Ritmo [3]; [21],25.3 % leaf area
same,green leaf area of the flag leaf,wheat variety Ritmo [3]; [22],13.8 % leaf area
same,green leaf area of the second-from-top leaf (F-1),wheat variety Ritmo [3]; [22],4.2 % leaf area
same,green leaf area of the third-from-top leaf (F-2),wheat variety Ritmo [3]; [22],0 % leaf area
same,green leaf area of the second-from-top leaf (F-1),wheat variety Ritmo [3]; 49 days after second fungicide application,0 % leaf area
same,Kernels/ear,wheat,30.1
same,Temperature (as a measure of the transpiration activity),"[4]; BBCH 75, ear",23.1 °C
same,Temperature (as a measure of the transpiration activity),"[4]; BBCH 75, leaf",22.4 °C
same,Temperature (as a measure of the transpiration activity),"[4]; BBCH 80, ear",19.5 °C
same,Temperature (as a measure of the transpiration activity),"[4]; BBCH 80, leaf",16.6 °C
same,Temperature (as a measure of the transpiration activity),"[4]; BBCH 85, ear",24.8 °C
same,Temperature (as a measure of the transpiration activity),"[4]; BBCH 85, leaf",23.7 °C
same,Temperature (as a measure of the transpiration activity),"[4]; BBCH 90, ear",24.2 °C
same,Temperature (as a measure of the transpiration activity),"[4]; BBCH 90, lear (so in the source)",23.1 °C
same,Chlorophyll content,"wheat variety Ritmo [5]; BBCH 75 (mature milk), leaf F",1740 µg/g
same,Chlorophyll content,"wheat variety Ritmo [5]; BBCH 75 (mature milk), leaf F-1",1637 µg/g
same,Chlorophyll content,"wheat variety Ritmo [5]; BBCH 75 (mature milk), leaf F-2",1207 µg/g
same,Chlorophyll content,"wheat variety Ritmo [5]; BBCH 85 (mature dough), leaf F",211 µg/g
same,Chlorophyll content,"wheat variety Ritmo [5]; BBCH 85 (mature dough), leaf F-1",163 µg/g
same,Chlorophyll content,"wheat variety Ritmo [5]; BBCH 85 (mature dough), leaf F-2",116 µg/g
same,Ears/m^2,wheat variety Ritmo [6],397
same,Harvest Index,wheat variety Ritmo [6],59.3
same,Straw,wheat variety Ritmo [6],533 g m^−2
same,TKM (thousand-kernel mass),wheat variety Ritmo [6],46.3 g
same,Yield,wheat variety Ritmo [6],8.1 t ha^−1
same,time of heading of wheat (ears emerged),[7]; 45 days after sowing,6.9
same,time of heading of wheat (ears emerged),[7]; 50 days after sowing,29.0
same,time of heading of wheat (ears emerged),[7]; 55 days after sowing,42.6
same,time of heading of wheat (ears emerged),[7]; 60 days after sowing,48.2
same,time of heading of wheat (ears emerged),[7]; 65 days after sowing,64.1
same,time of heading of wheat (ears emerged),[7]; 70 days after sowing,77.9
same,time of heading of wheat (ears emerged),[7]; 75 days after sowing,87.1
same,time of heading of wheat (ears emerged),[7]; 80 days after sowing,94.9
same,time of heading of wheat (ears emerged),[7]; 85 days after sowing,100
same,Ears/pot,[8],43.1
same,Harvest Index,[8],27.3%
same,Kernels/ear,[8],22.2
same,Straw,[8],85.4 g/pot
same,TKM (thousand-kernel mass),[8],33.5 g
same,Yield,[8],32.1 g/pot
